Patent US20200315923A1, “DESINFECTANT BONE AND DENTAL FILLER MATERIALS COMPRISING LIPOSOMES” (Cementic, priority 2017, published 2020)

Columns and labels:
Enterococcus faecalis = test: Agarose gel diffusion test; assay type: cell-based; conditions: agar diffusion, this experiment
Experimental: An adaptation of the agarose gel diffusion test was tested and validated for dental cements. The analysis was performed using the plaque assay. In the case of a test on samples of various concentrations, the ICM can be estimated using a software available on an on-line platform developed by Bonev in 2008 (http://agardiffusion.com) (Principles of assessing bacterial susceptibility to antibiotics using the agar diffusion method J. Antimic. Chemoth., 61 12951301).
For this experiment, liposomes and disinfecting fillers were produced as described in 8.1 and 7.6 a.
3 mm circular wells were punched using a disposable biopsy needle into Mueller-Hinton agar. The agar was then homogeneously inoculated with 100 μL of a solution of Enterococcus faecalis adjusted to a concentration of 0.5 MacFarland. Bio Root™ cement was then prepared (500 mg powder+250 μL liquid+/−35 μL CEM CHX 0918-001). The wells were then filled with cement using a pipetman for viscous solutions. The agar plates were then incubated at 37° C. under aerobic conditions for 24 hours. The area of growth inhibition was then measured using a ruler (FIG. 26).
To measure the effect of the prolonged release of antimicrobial agent, agar plates were prepared as above but without being inoculated with E. faecalis. […] The plates were then incubated for 24 hours and the lysis areas measured with a ruler.

Gram+ bacteria = conditions: cited from earlier work
Gram-bacteria = conditions: cited from earlier work

Compound | calculated MIC (Enterococcus faecalis) [µg/mL] | MIC (concentration corresponding to the elimination of 90% of the bacteria) (Gram+ bacteria) [µg/mL] | MIC (concentration corresponding to the elimination of 90% of the bacteria) (Gram-bacteria) [µg/mL]
N=C(NCCCCCCNC(=N)NC(=N)Nc1ccc(Cl)cc1)NC(=N)Nc1ccc(Cl)cc1.O=C(O)[C@H](O)[C@@H](O)[C@H](O)[C@H](O)CO.O=C(O)[C@H](O)[C@@H](O)[C@H](O)[C@H](O)CO [chlorhexidine digluconate] | 15.5 | – | –
[H]/N=C(\N/C(=N/[H])NCCCCCCNC(=N)NC(=N)Nc1ccc(Cl)cc1)Nc1ccc(Cl)cc1 [chlorhexidine] | – | 22 | 40
